How the values were obtained:
[1] = system: L5178Y-R tumor; test: PKHB1 treatment of L5178Y-R tumor-bearing mice; format: in vivo, BALB/c mice
Protocol: The heparinized blood acquired from mice, was assessed using the Automatic Hematology Analyzer KontroLab. Blood smears were performed and fixed with methanol, stained with Wright's, and observed under the microscope to perform differential blood white cells counts.
(§1) Six-to-eight-week-old BALB/c female mice were maintained in controlled environmental conditions (25° C. and 12h light/dark cycle) and were supplied with rodent food (Science diet) and water ad libitum. • Prophylactic vaccinations: L5178Y-R cells (1.5, 3, 5×10^6) were treated with 300 μM of PKHB1 (CC100) for 2h. Cell death was confirmed using trypan blue staining and flow cytometry. Treated cells were inoculated subcutaneously in 100 μl PBS into the left hind of the leg, whereas 2×10^6 untreated control cells were inoculated into the right hind 7 days later (42). • Tumor establishment and measurement: Tumor was established by the subcutaneous injection of 1×10^6 L5178Y-R cells in 100 μL PBS, into the left hind of the leg. Tumor volume and weight were measured three times per week using a caliper (Digimatic Caliper Mitutoyo Corporation, Japan) and a digital scale (American Weigh Scale-600-BLK, USA). When the tumor reached 100 mm^3 the first PKHB1 injection (200 μg) was applied (day 0). Tumor volume was determined with the formula: tumor volume (mm3)=[…]*A*B*C. Long-term memory assay: Mice in complete remission after PKHB1 treatment, were rechallenged with 2×10^6 cells in 100 μL of PBS, into the opposite limb, and tumor volume was measured like described above.
Tissues and organs were obtained and fixed in 10% neutral formalin, embedded in paraffin, sectioned (5 µm thickness) and stained with H&E (Sigma-Aldrich, St Louis, Mo., USA). Histopathological analysis was done by an external veterinarian pathologist (National professional certificate 2593012). Immunohistochemistry was done using the appropriate primary antibody (CD4/CD8) and adding the biotinylated secondary antibody. Finally, hematoxylin-counterstained slides are coverslipped using resin as mounting solution and observed under microscopy.

[2] = system: CEM; test: Calreticulin exposure (flow cytometry, confocal microscopy); format: cell-based, human; conditions: CC50 of PKHB1, 2h
Protocol: (§2) 1×10^6 cells/mL were plated, treated with PKHB1, and incubated for 2h. Cells were harvested, washed, and stained with Calreticulin-PE (FMC-75, Enzo Life Science, Farmingdale, N.Y., USA) antibody (1:1000) in FACS buffer. After 1h of incubation in darkness at room temperature, cells were washed and resuspended in 100Lp of FACS buffer to be assessed by flow cytometry. For confocal microscopy (OlympusX70), poly-Llysine was added 24h to sterile coverslips and 1×10^6 cells/mL were seeded. PKHB1 was added and incubated for 2h. Then, the cells were stained with Calreticulin-PE antibody (1:500) and Hoechst, incubated 1h, and assessed by confocal microscopy.

[3] = system: MOLT-4; test: as above; format: cell-based, human; conditions: CC50 of PKHB1, 2h
Protocol: as §2

[4] = system: L5178Y-R; test: as above; format: cell-based, murine; conditions: CC50 of PKHB1, 2h
Protocol: as §2

[5] = system: CEM; test: Western blot of HSP90, HSP70, CRT and HMGB1; format: cell-based, human; conditions: CC50 and CC100, 2h
Protocol: (§3) 1×10^6 cells/mL were seeded in a serum-free culture medium and treated with PKHB1 (CC50 and CC100 for each cell line) or left alone (Control) for 2h. Supernatants was recovered and lysed with lysis buffer (20 mM Tris pH 6.8, 2 mM EDTA, 300 mM NaCl and SDS 2%). Protein concentration was measured using the DC Protein Assay kit (Bio-Rad, Hercules, Calif., USA) and 50 μg of protein were loaded into SDS-PAGE gels. After blotting, nitrocellulose filters were probed with primary antibodies (1:1000) against HMGB1 (HAP46.5: sc-56698), HSP70 (C92F3A-5: sc-66048), HSP90 (F-8: SC-13119) and Calreticulin (F-4: sc373863). Anti-mouse or anti-rabbit-HRP served as secondary antibodies (Santa Cruz Biotechnology, CA, USA). Visualization was performed with ECL substrate system (Thermo Scientific, Waltham, Mass., USA).

[6] = system: MOLT-4; test: Western blot of HSP90, HSP70, CRT and HMGB1; format: cell-based, human; conditions: CC50 and CC100, 2h
Protocol: as §3

[7] = system: L5178Y-R; test: Western blot of HSP90, HSP70, CRT and HMGB1; format: cell-based, murine; conditions: CC50 and CC100, 2h
Protocol: as §3

[8] = system: CEM; test: HMGB1 release assay (ELISA); format: cell-based, human; conditions: PKHB1 CC100, 2h
Protocol: (§4) Supernatants of untreated and treated (PKHB1 CC50 and CC100 for each cell line) leukemic cells (1×10^6 cells/mL) were used to measure extracellular HMGB1 using the HMGB1 ELISA kit for CEM, MOLT-4 or L5178Y-R cells (BioAssay ELISA kit Human or mouse respectively, US biological Life Science Salem, Mass., USA), following the manufacturer instructions. Absorbance was assessed at 450 nm.

[9] = system: MOLT-4; test: HMGB1 release assay (ELISA); format: cell-based, human
Protocol: as §4

[10] = system: L5178Y-R; test: HMGB1 release assay (ELISA); format: cell-based, murine; conditions: PKHB1 CC100, 2h
Protocol: as §4

[11] = system: CEM; test: ATP release assay (luciferase bioluminescence); format: cell-based, human; conditions: CC50 and CC100, 2h
Protocol: (§5) 1×10^6 cells/mL were treated with PKHB1 (CC50 and CC100 for each cell lines) for 2h. Supernatants were used to assess extracellular ATP by a luciferase assay (ENLITEN kit, Promega, Madison Wis., USA) following the manufacturer's instructions. Bioluminescence was assessed in a microplate reader (Synergy HT, BioTek, Software Gen5, Winooski, Vt., USA) at 560 nm.

[12] = system: MOLT-4; test: ATP release assay (luciferase bioluminescence); format: cell-based, human; conditions: CC50 and CC100, 2h
Protocol: as §5

[13] = system: L5178Y-R; test: ATP release assay (luciferase bioluminescence); format: cell-based, murine; conditions: CC50 and CC100, 2h
Protocol: as §5

[14] = system: L5178Y-R tumor; test: Long-term memory assay, rechallenge of mice in remission after PKHB1 treatment; format: in vivo, BALB/c mice; conditions: mice with complete regression after PKHB1-treatment, rechallenged with 2×10^6 L5178Y-R viable cells
Protocol: as §1

[15] = PKHB1-treated vs untreated tumor-bearing mice, trypan blue count

SMILES: CSCC[C@H](NC(=O)[C@@H](NC(=O)[C@@H](NC(=O)[C@H](Cc1ccc(O)cc1)NC(=O)[C@H](Cc1ccccc1)NC(=O)[C@H](CCCNC(=N)N)NC(=O)[C@H](N)CCCCN)C(C)C)C(C)C)C(=O)N[C@@H](Cc1c[nH]c2ccccc12)C(=O)N[C@@H](CCCCN)C(=O)N[C@H](CCCCN)C(=O)O [PKHB1, (D)K-R-F-Y-V-V-M-W-K-(D)K]
- tumor regression ([1]; 200 μg PKHB1 intraperitoneally weekly, day 30): complete tumor regression in most of the mice
- immunohistochemistry of tumor sections, CD4+ and CD8+ cells ([1]; PKHB1-treated tumor-bearing mice): presence of CD4+ and CD8+ cells
- WBC differential ([1]; PKHB1-treated tumor-bearing mice vs healthy mice): no significant difference
- cell number of BM, spleen and thymus cells [1, 15]: significant increase
- cell number of lymph nodes [1, 15]: significant decrease
- CRT exposure [2]: significant increase
- CRT exposure [3]: significant increase
- CRT exposure [4]: significant increase
- expression of HSP90, HSP70, CRT and HMGB1 in cellular lysates [5]: decrease
- expression of HSP90, HSP70, CRT and HMGB1 in supernatants ([5]; vs untreated cells): increased
- expression of HSP90, HSP70, CRT and HMGB1 in cellular lysates [6]: decrease
- expression of HSP90, HSP70, CRT and HMGB1 in supernatants ([6]; vs untreated cells): increased
- expression of HSP90, HSP70, CRT and HMGB1 in cellular lysates [7]: decrease
- expression of HSP90, HSP70, CRT and HMGB1 in supernatants ([7]; vs untreated cells): increased
- HMGB1 release compared to the untreated control [8]: 6 fold
- HMGB1 release with respect to the control ([9]; PKHB1 CC50, 2h): 8 fold
- HMGB1 release compared to the untreated control ([9]; PKHB1 CC100, 2h): 4 fold
- HMGB1 release compared to the untreated control [10]: 2 fold
- presence of ATP in supernatants [11]: significantly augmented
- presence of ATP in supernatants [12]: significantly augmented
- presence of ATP in supernatants [13]: significantly augmented
- rechallenged mice that developed the tumor [14]: ≈ 17%
- survival of re-challenged mice (Kaplan-Meier) [14]: 90%

Source: patent US20220000967A1, “SYNTHETIC PEPTIDES INDUCING IMMUNOGENIC CELL DEATH” (SORBONNE UNIVERSITE, priority 2018, published 2022)
